# Patent publication US20060069132A1, “Azolecarboxamide herbicides” (priority 2004, published 2006)
# Like-named read-outs stand apart in the source and are kept apart here.
# Tests used:
# [1] = tested on: barnyardgrass; assay: Test A pre-/postemergence herbicide test; format: in vivo, Echinochloa crus-galli; details: Echinochloa crus-galli, 240 h; for pest or weed control at 500 g/ha: 500 g ai/ha; for pest or weed control at 2000 g/ha: 2000 g ai/ha
# Procedure, shortened: (§1)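 Both application timings were run together: directed soil spray over freshly planted seeds in sandy loam, and runoff spray onto 2–10 cm seedlings. Evaluation after ~10 days in greenhouse used a 0–100 visual scale versus untreated controls.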
# [2] = tested on: large crabgrass; assay: Test A pre-/postemergence herbicide test; format: in vivo, Digitaria sanguinalis; details: Digitaria sanguinalis, 240 h; for pest or weed control at 500 g/ha: 500 g ai/ha; for pest or weed control at 2000 g/ha: 2000 g ai/ha
# Procedure, shortened: as §1
# [3] = tested on: giant foxtail; assay: Test A pre-/postemergence herbicide test; format: in vivo, Setaria faberi; details: Setaria faberi, 240 h; for pest or weed control at 500 g/ha: 500 g ai/ha; for pest or weed control at 2000 g/ha: 2000 g ai/ha
# Procedure, shortened: as §1
# [4] = tested on: blackgrass; assay: Test B postemergence herbicide test; format: in vivo, Alopecurus myosuroides; details: Postemergence, scale 0 (no effect) to 100 (complete control)
# Procedure, shortened: (§2)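 Treated at 2-leaf (paddy) or 1–4-leaf, 2–18 cm (postemergence); greenhouse 13–15 d; visual score vs control, 0 none to 100 complete control; dash = not tested.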
# [5] = tested on: ducksalad; assay: Test B flooded paddy test; format: in vivo, Heteranthera limosa; details: Heteranthera limosa, 336 h, 1000 g ai/ha, visual rating, scale 0 to 100 (0 no effect, 100 complete control), 13 to 15 days, read-out: Ducksalad plant response rating
# Procedure, shortened: as §2
# [6] = tested on: cocklebur; assay: Test C pre-/postemergence herbicide test; format: in vivo, Xanthium strumarium
# Procedure, shortened: (§3)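 Emerged plants at the 1- to 4-leaf stage (2–18 cm), or freshly planted seeds, received test chemicals in a non-phytotoxic solvent mixture with surfactant. Response was visually scored against controls after 12 to 14 days in the greenhouse, on a 0 (no effect) to 100 (complete control) scale.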
# [7] = tested on: corn; assay: Test C pre-/postemergence herbicide test; format: in vivo, Zea mays
# Procedure, shortened: as §3
# [8] = tested on: woolly cupgrass; assay: Test C pre-/postemergence herbicide test; format: in vivo, Eriochloa villosa
# Procedure, shortened: as §3
# [9] = tested on: common (oilseed) sunflower; assay: Test C pre-/postemergence herbicide test; format: in vivo, Helianthus annuus
# Procedure, shortened: as §3
# [10] = tested on: ducksalad; assay: Test C flooded paddy test; format: in vivo, Heteranthera limosa; details: Heteranthera limosa
# [11] = post-emergence, Postemergence, 0 to 100 scale, 0 no effect, 100 complete control, read-out: Plant response rating, Barnyardgrass
# [12] = post-emergence, Postemergence, 0 to 100 scale, 0 no effect, 100 complete control, read-out: Plant response rating, Crabgrass, Large
# [13] = post-emergence, Postemergence, 0 to 100 scale, 0 no effect, 100 complete control, read-out: Plant response rating, Foxtail, Giant
# [14] = Preemergence, 500 g ai/ha, scale 0 to 100, 0 no effect, 100 complete control
smiles,measurement,setting,value
"CCNC(=O)c1ccc(F)c(NC(=O)c2cc(C(C)(C)C)nn2CC)c1 [Compound 2, 3-(1,1-dimethylethyl)-1-ethyl-N-[5-[(ethylamino)carbonyl]-2-fluorophenyl]-1H-pyrazole-5-carboxamide]",pest or weed control at 500 g/ha,[1]; [11],100%
same,pest or weed control at 2000 g/ha,[1]; [11],100%
same,pest or weed control at 500 g/ha,"[1]; pre-emergence, Preemergence, visual rating, 0 to 100 scale (0 no effect, 100 complete control), read-out: Barnyardgrass plant response rating",100%
same,pest or weed control at 2000 g/ha,"[1]; pre-emergence, Preemergence, 0 to 100 scale, 0 no effect, 100 complete control, read-out: Barnyardgrass plant response rating",100%
same,pest or weed control at 500 g/ha,[2]; [12],85%
same,pest or weed control at 2000 g/ha,[2]; [12],100%
same,pest or weed control at 500 g/ha,"[2]; pre-emergence, Preemergence, visual rating, 0 to 100 scale (0 no effect, 100 complete control), read-out: Crabgrass, Large plant response rating",100%
same,pest or weed control at 2000 g/ha,"[2]; pre-emergence, Preemergence, 0 to 100 scale, 0 no effect, 100 complete control, read-out: Crabgrass, Large plant response rating",100%
same,pest or weed control at 500 g/ha,[3]; [13],95%
same,pest or weed control at 2000 g/ha,[3]; [13],100%
same,pest or weed control at 500 g/ha,"[3]; pre-emergence, Preemergence, visual rating, 0 to 100 scale (0 no effect, 100 complete control), read-out: Foxtail, Giant plant response rating",100%
same,pest or weed control at 2000 g/ha,"[3]; pre-emergence, Preemergence, 0 to 100 scale, 0 no effect, 100 complete control, read-out: Foxtail, Giant plant response rating",100%
same,pest or weed control at 125 g/ha,"[4]; Alopecurus myosuroides, post-emergence, 336 h, 125 g ai/ha, read-out: Blackgrass plant response rating",10%
same,"Plant response rating, Blackgrass","[4]; 500 g ai/ha, visual rating after 13 to 15 days",30
same,pest or weed control at 1000 g/ha,[5],90%
same,"Plant response rating (0 = no effect, 100 = complete control), Cocklebur","[6]; 62 g ai/ha, preemergence",5
same,pest or weed control at 125 g/ha,"[6]; Xanthium strumarium, pre-emergence, 312 h, 125 g ai/ha, scale 0-100, read-out: Plant response rating, Cocklebur",5%
same,pest or weed control at 250 g/ha,"[6]; Xanthium strumarium, pre-emergence, 312 h, 250 g ai/ha, scale 0 to 100 (0 no effect, 100 complete control), visual, 12 to 14 days, read-out: Plant response rating, Cocklebur",65%
same,pest or weed control at 500 g/ha,"[6]; Xanthium strumarium, pre-emergence, 312 h, Preemergence, 500 g ai/ha, scale 0 to 100, 0 no effect, 100 complete control, read-out: Cocklebur plant response rating",80%
same,"Plant response rating (0 = no effect, 100 = complete control), Corn","[7]; 62 g ai/ha, preemergence",0
same,Corn plant response rating,[7]; [14],60
same,"Corn plant response rating (crop injury, 0 = no effect, 100 = complete kill) at 125 g/ha","[7]; Zea mays, pre-emergence, 312 h, 125 g ai/ha, scale 0-100",30%
same,"Corn plant response rating (crop injury, 0 = no effect, 100 = complete kill) at 250 g/ha","[7]; Zea mays, pre-emergence, 312 h, 250 g ai/ha, scale 0 to 100 (0 no effect, 100 complete control), visual, 12 to 14 days",35%
same,"Plant response rating (0 = no effect, 100 = complete control), Cupgrass, Woolly","[8]; 62 g ai/ha, preemergence",40
same,pest or weed control at 125 g/ha,"[8]; Eriochloa villosa, pre-emergence, 312 h, 125 g ai/ha, scale 0-100, read-out: Plant response rating, Cupgrass, Woolly",60%
same,pest or weed control at 250 g/ha,"[8]; Eriochloa villosa, pre-emergence, 312 h, 250 g ai/ha, scale 0 to 100 (0 no effect, 100 complete control), visual, 12 to 14 days, read-out: Plant response rating, Cupgrass, Woolly",60%
same,"Cupgrass, Woolly plant response rating",[8]; [14],80
same,"Plant response rating (0 = no effect, 100 = complete control), Sunflower","[9]; 62 g ai/ha, preemergence",0
same,pest or weed control at 250 g/ha,"[9]; Helianthus annuus, pre-emergence, 250 g ai/ha, scale 0 to 100 (0 no effect, 100 complete control), visual, 12 to 14 days, read-out: Plant response rating, Sunflower",0%
same,Sunflower plant response rating,[9]; [14],0
same,pest or weed control at 62 g/ha,"[10]; 62 g ai/ha, scale 0 to 100 (0 no effect, 100 complete control), read-out: Ducksalad plant response rating",80%
same,pest or weed control at 125 g/ha,"[10]; 125 g ai/ha, scale of 0 to 100, 0 is no effect, 100 is complete control, read-out: Ducksalad plant response rating",80%
same,pest or weed control at 250 g/ha,"[10]; 250 g ai/ha, visual rating after 12 to 14 days, scale 0 to 100 (0 no effect, 100 complete control), read-out: Plant response rating, Ducksalad",85%
same,pest or weed control at 500 g/ha,"[10]; 500 g ai/ha, visual rating after 12 to 14 days, scale 0 to 100 (0 no effect, 100 complete control), read-out: Plant response rating, Ducksalad",95%
